This test concerns the target T1, Human Neuropeptide Y2 Receptor (Homo sapiens, UniProt P49146).
T1 construct: purchased CHEMICON HTS066M
T1 sequence (P49146 1-381): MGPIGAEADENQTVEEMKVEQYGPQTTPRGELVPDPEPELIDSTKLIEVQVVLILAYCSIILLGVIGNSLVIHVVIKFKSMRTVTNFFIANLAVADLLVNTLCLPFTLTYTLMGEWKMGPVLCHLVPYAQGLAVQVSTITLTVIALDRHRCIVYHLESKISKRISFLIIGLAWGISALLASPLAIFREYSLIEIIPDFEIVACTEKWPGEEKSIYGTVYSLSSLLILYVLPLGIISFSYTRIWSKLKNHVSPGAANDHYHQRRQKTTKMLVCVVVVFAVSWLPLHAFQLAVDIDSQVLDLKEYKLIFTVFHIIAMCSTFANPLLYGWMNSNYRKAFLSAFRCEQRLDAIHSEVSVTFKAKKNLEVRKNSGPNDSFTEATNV
Put plainly: Radioligand binding competition assay (RLB). The conditions noted are these: Table 3; human 125I-PYY (1-36) 0.02 nM, Y2 receptor membranes; read-out: Ki. The gist of the method:
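IC50 values come from nonlinear regression of sigmoidal dose-response curves of filter-bound radioactivity. Peptides competed with radioligand at human Y2 receptor membranes (0.5 μg protein/well) for 2 h at room temperature in pH 7.4 HEPES buffer containing Mg2+, Ca2+ and 0.2% ovalbumin.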

What is called pKi is the negative decadic logarithm of the Ki, by convention in mol/L.

pKi: −log10 of the molar value.

`CC(C)CC(=O)N[C@@H](C)C(=O)N1CCC[C@H]1C(=O)N[C@@H](CCC(=O)O)C(=O)N[C@@H](CCCCNC(=O)COCCOCCNC(=O)COCCOCCNC(=O)CC[C@H](NC(=O)CCCCCCCCCCCCCCCCC(=O)O)C(=O)O)C(=O)N1CCC[C@H]1C(=O)N[C@@H](CCC(=O)O)C(=O)N[C@@H](CCC(=O)O)C(=O)N[C@@H](C)C(=O)N[C@@H](C)C(=O)N[C@@H](CO)C(=O)N1CCC[C@H]1C(=O)N[C@@H](CCC(=O)O)C(=O)N[C@@H](CCC(=O)O)C(=O)N[C@@H](CC(C)C)C(=O)N[C@@H](CCC(N)=O)C(=O)N[C@@H](CCCNC(=N)N)C(=O)N[C@@H](Cc1ccc(O)cc1)C(=O)N[C@@H](Cc1ccc(O)cc1)C(=O)N[C@H](C(=O)N[C@H](C(=O)N[C@@H](CC(C)C)C(=O)N[C@@H](CCCNC(=N)N)C(=O)N[C@@H](Cc1c[nH]cn1)C(=O)N[C@@H](Cc1ccc(O)cc1)C(=O)N[C@@H](Cc1ccc(O)cc1)C(=O)N[C@@H](CC(N)=O)C(=O)N[C@@H](Cc1c[nH]c2ccccc12)C(=O)N[C@@H](CC(C)C)C(=O)N[C@H](C(=O)N[C@@H](CCCNC(=N)N)C(=O)N[C@@H](CCC(N)=O)C(=O)N[C@@H](CCCNC(=N)N)C(=O)N[C@@H](Cc1ccc(O)cc1)C(N)=O)[C@@H](C)O)[C@@H](C)O)C(C)C` [Compound 184, N{alpha-4}-(3-methylbutanoyl)-N{epsilon-7}-[2-(2-{2-[2-(2-{2-[(4S)-4-carboxy-4-(17-carboxyheptadecanamido)butanamido]ethoxy}ethoxy)acetamido]ethoxy}ethoxy)acetamido]-[4A,7K,9E,11A,18Q,22V,23T,28Y,30W,31L]hPYY (4-36)]: the pKi is 8.69.
For the molecule `CC(C)CC(=O)N[C@@H](C)C(=O)N1CCC[C@H]1C(=O)N[C@@H](CCC(=O)O)C(=O)N[C@@H](CCCCNC(=O)COCCOCCNC(=O)COCCOCCNC(=O)CC[C@H](NC(=O)CCCCCCCCCCCCCCCCC(=O)O)C(=O)O)C(=O)N1CCC[C@H]1C(=O)N[C@@H](CCC(=O)O)C(=O)N[C@@H](CCC(=O)O)C(=O)N[C@@H](CC(=O)O)C(=O)N[C@@H](C)C(=O)N[C@@H](CO)C(=O)N1CCC[C@H]1C(=O)N[C@@H](CCC(=O)O)C(=O)N[C@@H](CCC(=O)O)C(=O)N[C@@H](CC(C)C)C(=O)N[C@@H](CCC(N)=O)C(=O)N[C@@H](CCCNC(=N)N)C(=O)N[C@@H](Cc1ccc(O)cc1)C(=O)N[C@@H](Cc1ccc(O)cc1)C(=O)N[C@H](C(=O)N[C@@H](CO)C(=O)N[C@@H](CC(C)C)C(=O)N[C@@H](CCCNC(=N)N)C(=O)N[C@@H](Cc1c[nH]cn1)C(=O)N[C@@H](CCC(N)=O)C(=O)N[C@@H](Cc1ccc(O)cc1)C(=O)N[C@@H](CC(N)=O)C(=O)N[C@@H](Cc1c[nH]c2ccccc12)C(=O)N[C@@H](CC(C)C)C(=O)N[C@H](C(=O)N[C@@H](CCCNC(=N)N)C(=O)N[C@@H](CCC(N)=O)C(=O)N[C@@H](CCCNC(=N)N)C(=O)N[C@@H](Cc1ccc(O)cc1)C(N)=O)[C@@H](C)O)C(C)C` [Compound 187, N{alpha-4}-(3-methylbutanoyl)-N{epsilon-7}-[2-(2-{2-[2-(2-{2-[(4S)-4-carboxy-4-(17-carboxyheptadecanamido)butanamido]ethoxy}ethoxy)acetamido]ethoxy}ethoxy)acetamido]-[4A,7K,9E,18Q,22V,27Q,28Y,30W,31L]hPYY (4-36)], the pKi was 8.56.
The figure for `CC(C)CC(=O)N[C@@H](C)C(=O)N1CCC[C@H]1C(=O)N[C@@H](CCC(=O)O)C(=O)N[C@@H](CCCCNC(=O)COCCOCCNC(=O)COCCOCCNC(=O)CC[C@H](NC(=O)CCCCCCCCCCCCCCCCC(=O)O)C(=O)O)C(=O)N1CCC[C@H]1C(=O)N[C@@H](CCC(=O)O)C(=O)N[C@@H](CCC(=O)O)C(=O)N[C@@H](CC(=O)O)C(=O)N[C@@H](C)C(=O)N[C@@H](CO)C(=O)N[C@@H](CCC(=O)O)C(=O)N[C@@H](C)C(=O)N[C@@H](CCC(=O)O)C(=O)N[C@@H](CC(C)C)C(=O)N[C@@H](CCC(N)=O)C(=O)N[C@@H](CCCNC(=N)N)C(=O)N[C@@H](Cc1ccc(O)cc1)C(=O)N[C@@H](Cc1ccc(O)cc1)C(=O)N[C@H](C(=O)N[C@@H](CO)C(=O)N[C@@H](CC(C)C)C(=O)N[C@@H](CCCNC(=N)N)C(=O)N[C@@H](Cc1c[nH]cn1)C(=O)N[C@@H](Cc1ccc(O)cc1)C(=O)N[C@@H](Cc1ccc(O)cc1)C(=O)N[C@@H](CC(N)=O)C(=O)N[C@@H](Cc1c[nH]c2ccccc12)C(=O)N[C@@H](CC(C)C)C(=O)N[C@H](C(=O)N[C@@H](CCCNC(=N)N)C(=O)N[C@@H](CCC(N)=O)C(=O)N[C@@H](CCCNC(=N)N)C(=O)N[C@@H](Cc1ccc(O)cc1)C(N)=O)[C@@H](C)O)C(C)C` [Compound 189, N{alpha-4}-(3-methylbutanoyl)-N{epsilon-7}-[2-(2-{2-[2-(2-{2-[(4S)-4-carboxy-4-(17-carboxyheptadecanamido)butanamido]ethoxy}ethoxy)acetamido]ethoxy}ethoxy)acetamido]-[4A,7K,9E,14E,15A,18Q,22V,28Y,30W,31L]hPYY (4-36)] is 8.68; for `CC[C@H](C)[C@H](NC(=O)[C@H](Cc1ccc(O)cc1)NC(=O)[C@H](Cc1ccc(O)cc1)NC(=O)[C@H](CCCNC(=N)N)NC(=O)[C@H](CCC(N)=O)NC(=O)[C@H](CC(C)C)NC(=O)[C@H](CCC(=O)O)NC(=O)[C@H](CCC(=O)O)NC(=O)[C@@H]1CCCN1C(=O)[C@H](CO)NC(=O)[C@H](C)NC(=O)[C@H](CC(=O)O)NC(=O)[C@H](CCC(=O)O)NC(=O)[C@H](CCC(=O)O)NC(=O)[C@@H]1CCCN1C(=O)[C@H](CCCCNC(=O)COCCOCCNC(=O)COCCOCCNC(=O)CC[C@H](NC(=O)CCCCCCCCCCCCCCCCC(=O)O)C(=O)O)NC(=O)[C@H](CCC(=O)O)NC(=O)[C@@H]1CCCN1C(=O)[C@H](C)NC(=O)CC(C)C)C(=O)N[C@@H](CO)C(=O)N[C@@H](CC(C)C)C(=O)N[C@@H](CCCNC(=N)N)C(=O)N[C@@H](Cc1c[nH]cn1)C(=O)N[C@@H](Cc1ccc(O)cc1)C(=O)N[C@@H](Cc1ccc(O)cc1)C(=O)N[C@@H](CC(N)=O)C(=O)N[C@@H](Cc1c[nH]c2ccccc12)C(=O)N[C@@H](CC(C)C)C(=O)N[C@H](C(=O)N[C@@H](CCCNC(=N)N)C(=O)N[C@@H](CCC(N)=O)C(=O)N[C@@H](CCCNC(=N)N)C(=O)N[C@@H](Cc1ccc(O)cc1)C(N)=O)[C@@H](C)O` [Compound 191, N{alpha-4}-(3-methylbutanoyl)-N{epsilon-7}-[2-(2-{2-[2-(2-{2-[(4S)-4-carboxy-4-(17-carboxyheptadecanamido)butanamido]ethoxy}ethoxy)acetamido]ethoxy}ethoxy)acetamido]-[4A,7K,9E,18Q,22I,28Y,30W,31L]hPYY (4-36)] it is 8.77.
Take `CC(C)CC(=O)N[C@@H](C)C(=O)N1CCC[C@H]1C(=O)N[C@@H](CCC(=O)O)C(=O)N[C@@H](CCCCNC(=O)COCCOCCNC(=O)COCCOCCNC(=O)CC[C@H](NC(=O)CCCCCCCCCCCCCCCCC(=O)O)C(=O)O)C(=O)N1CCC[C@H]1C(=O)N[C@@H](CCC(=O)O)C(=O)N[C@@H](CCC(=O)O)C(=O)N[C@@H](CC(=O)O)C(=O)N[C@@H](C)C(=O)N[C@@H](C)C(=O)N1CCC[C@H]1C(=O)N[C@@H](C)C(=O)N[C@@H](CCC(=O)O)C(=O)N[C@@H](CC(C)C)C(=O)N[C@@H](CCC(N)=O)C(=O)N[C@@H](CCCNC(=N)N)C(=O)N[C@@H](Cc1ccc(O)cc1)C(=O)N[C@@H](Cc1ccc(O)cc1)C(=O)N[C@H](C(=O)N[C@@H](CO)C(=O)N[C@@H](CC(C)C)C(=O)N[C@@H](CCCNC(=N)N)C(=O)N[C@@H](Cc1c[nH]cn1)C(=O)N[C@@H](Cc1ccc(O)cc1)C(=O)N[C@@H](Cc1ccc(O)cc1)C(=O)N[C@@H](CC(N)=O)C(=O)N[C@@H](Cc1c[nH]c2ccccc12)C(=O)N[C@@H](CC(C)C)C(=O)N[C@H](C(=O)N[C@@H](CCCNC(=N)N)C(=O)N[C@@H](CCC(N)=O)C(=O)N[C@@H](CCCNC(=N)N)C(=O)N[C@@H](Cc1ccc(O)cc1)C(N)=O)[C@@H](C)O)C(C)C` [Compound 192, N{alpha-4}-(3-methylbutanoyl)-N{epsilon-7}-[2-(2-{2-[2-(2-{2-[(4S)-4-carboxy-4-(17-carboxyheptadecanamido)butanamido]ethoxy}ethoxy)acetamido]ethoxy}ethoxy)acetamido]-[4A,7K,9E,13A,15A,18Q,22V,28Y,30W,31L]hPYY (4-36)]: the pKi was 8.78.
The value for `CC(C)CC(=O)N[C@@H](C)C(=O)N1CCC[C@H]1C(=O)N[C@@H](C)C(=O)N[C@@H](CCCCNC(=O)COCCOCCNC(=O)COCCOCCNC(=O)CC[C@H](NC(=O)CCCCCCCCCCCCCCCCC(=O)O)C(=O)O)C(=O)N1CCC[C@H]1C(=O)N1CCC[C@H]1C(=O)N[C@@H](CCC(=O)O)C(=O)N[C@@H](CC(=O)O)C(=O)N[C@@H](C)C(=O)N[C@@H](CCC(=O)O)C(=O)N1CCC[C@H]1C(=O)N[C@@H](CCC(=O)O)C(=O)N[C@@H](CCC(=O)O)C(=O)N[C@@H](CC(C)C)C(=O)N[C@@H](CCC(N)=O)C(=O)N[C@@H](CCCNC(=N)N)C(=O)N[C@@H](Cc1ccc(O)cc1)C(=O)N[C@@H](Cc1ccc(O)cc1)C(=O)N[C@H](C(=O)N[C@@H](CO)C(=O)N[C@@H](CC(C)C)C(=O)N[C@@H](CCCNC(=N)N)C(=O)N[C@@H](Cc1c[nH]cn1)C(=O)N[C@@H](Cc1ccc(O)cc1)C(=O)N[C@@H](Cc1ccc(O)cc1)C(=O)N[C@@H](CC(N)=O)C(=O)N[C@@H](Cc1c[nH]c2ccccc12)C(=O)N[C@@H](CC(C)C)C(=O)N[C@H](C(=O)N[C@@H](CCCNC(=N)N)C(=O)N[C@@H](CCC(N)=O)C(=O)N[C@@H](CCCNC(=N)N)C(=O)N[C@@H](Cc1ccc(O)cc1)C(N)=O)[C@@H](C)O)C(C)C` [Compound 196, N{alpha-4}-(3-methylbutanoyl)-N{epsilon-7}-[2-(2-{2-[2-(2-{2-[(4S)-4-carboxy-4-(17-carboxyheptadecanamido)butanamido]ethoxy}ethoxy)acetamido]ethoxy}ethoxy)acetamido]-[4A,6A,7K,9P,13E,18Q,22V,28Y,30W,31L]hPYY (4-36)] was 9.01.

The values above are taken from patent US12559529B2, “NPY2 receptor agonists” (Boehringer Ingelheim International GmbH, priority 2019, dated 2026).
